Measured values reported in patent US20030039957A1, “Functional protein expression for rapid cell-free phenotyping” (priority 2000, published 2003).
Converted amounts (≈) assume the structure as drawn. Read-outs that look alike come from different tables or passages of the source.

How the values were obtained:
[1] = system: mutant DNA gyrase A protein; assay: Supercoiling inhibition and DNA cleavage assays; assay type: biochemical, Streptococcus pneumoniae; settings: for MIC relative to maximal serum drug concentrations reported for standard dosage regimens: enzyme inhibition or DNA cleavage assays
Protocol: (§1) The functional activity of the purified mutant DNA gyrase A protein obtained from the fluoroquinolone resistant Streptococcus pneumoniae was compared to wild-type DNA gyrase A protein in supercoiling inhibition assays and DNA cleavage assays as described in Pan et al., and Barnard et al., supra. A concentration range of antibiotics was added to contact both the wild-type and mutant proteins. In addition, the affinities for each antibiotic and both the wild-type and mutant proteins were derived according to the method described in Roychoudhury, et al., supra.

[2] = molecular target: T1, wild-type lanosterol 14 alpha-demethylase protein (Candida albicans, UniProt P10613); parameters: A 60 kDa protein, corresponding to the lanosterol 14 alpha-demethylase protein, was produced from this eukaryotic expression system; made in house; host or cells: cell-free coupled reticulocyte lysate (TNT T7 Quick for PCR DNA, Promega); settings: typically reported; cited from earlier work
[3] = molecular target: T2, mutant lanosterol 14 alpha-demethylase proteins (Candida albicans, UniProt P10613); assay: Prevention of CO-complex formation with reduced cytochrome P450, mutant; assay type: binding, C. albicans; settings: mutant proteins
T2 construct: IC50; other: mutant proteins; other: at 100 nM; A 60 kDa protein, corresponding to the lanosterol 14 alpha-demethylase protein, was produced from this eukaryotic expression system
Protocol: (§2) Microsomes were isolated from C. albicans as described in Marichal, P., et al., Microbiology (1999), 145, 2701-2713, incorporated herein by reference. Prevention of CO-complex formation in the reduced microsomal cytochrome P450 preparation provides an assay that can be used to test the affinity of the protein for an azole. The P-450 content and the effects of azoles on the interaction of CO with the reduced haem iron of P-450 were measured as described in Vanden Bossche, H., et al., Drug Dev Res, 8:287-298 (1986), incorporated herein by reference. The assay employed 0.1 nmol cytochrome P450 and 100 pM to 100 μM ranges of the anti-fungal compounds itraconazole and fluconazole.

[4] = system: patient derived HCV NS5B RNA-dependent RNA polymerase; assay type: biochemical, hepatitis C virus
[5] = molecular target: wild-type HCV NS5B RNA-dependent RNA polymerase (Hepatitis C virus genotype 2b, UniProt Q9DHD6); assay type: biochemical
[6] = system: strain AD 1002 overexpressing C. albicans Cdr1p; settings: strain AD 1002 overexpressing Cdr1p, Nakamura 2001; cited from earlier work
[7] = molecular target: wild-type HBV polymerase (HBV-WT) (Hepatitis B virus genotype A2 subtype adw2, UniProt P03159); assay: DNA polymerase assay (non-radioactive, sandwich ELISA) with cell-free expressed HBV polymerase; settings: read-out: IC50, inhibition of DNA polymerase activity, FIG. 3, approximate
Source text: A sensitive DNA polymerase assay (Roche Molecular Biochemicals, Indianapolis, Ind.) was used to determine the DNA polymerase activity of the expressed HBV polymerase proteins. […] The DNA polymerase assay as shown provides a non-radioactive assay, which measures the ability of the enzyme to digoxigenin and biotin labeled nucleotides into freshly synthesized DNA. The detection of synthesized DNA as a parameter for DNA polymerase activity follows a sandwich ELISA protocol—biotin labeled nucleic acid binds the surface of a microtiter plate coated with streptavidin. An anti-digoxigenin antibody conjugated to peroxidase is incubated with the nucleic acid. Upon addition of the peroxidase substrate, a color change occurs corresponding to the peroxidase activity, which is detected by a microplate ELISA reader. The absorbance samples is directly correlated to the level of DNA polymerase activity in the sample. […] In FIG. 1, HBV-WT refers to the wild-type HBV polymerase. […] PC and NC refer respectively to positive and negative controls. Briefly, the positive control includes Klenow enzyme in polymerase buffer. The negative control includes reticulcyte lysate without the DNA amplicon.
Inhibition of DNA polymerase activity (%) was plotted against compound concentration. […]

[8] = system: DNA gyrase versus topoisomerase IV; assay: Ratio of affinity parameter, DNA gyrase to control protein topoisomerase IV; assay type: binding, Streptococcus pneumoniae
mutant DNA Gyrase A = assay: Binding assays (affinity), mutant gyrase A; parameters: species or system Streptococcus pneumoniae
Protocol: as §1

wild-type DNA Gyrase A = molecular target: T3, wild-type DNA Gyrase A (Streptococcus pneumoniae serotype 4, UniProt P0A4L9+P72524); assay: Binding assays (affinity), wild-type gyrase A
T3 construct: A 100 kDa protein, corresponding to the DNA gyrase A protein, was produced from this eukaryotic expression system; made in house; host or cells: cell-free coupled reticulocyte lysate (TNT T7 Quick for PCR DNA, Promega)
Protocol: as §1

HIV = settings: cited from earlier work
[9] = system: HIV reverse transcriptase, patient-derived protein; assay type: biochemical, HIV-1
Source text: The PCR-generated DNA templates were expressed into HIV reverse transcriptase and protease using a coupled reticulocyte lysate system, TNT T7 Quick for PCR DNA (Promega, Madison, Wis.). Sizes of the proteins, as well as a confirmation of their integrity, was confirmed by Western Blot.

S. cerevisiae AD1-8u(−) = settings: Nakamura 2001; cited from earlier work
[10] = system: mutant lanosterol 14 alpha-demethylase proteins; assay: Prevention of CO-complex formation with reduced cytochrome P450, mutant; assay type: binding, C. albicans; settings: mutant versus wild-type
Protocol: as §2

[11] = molecular target: T1, wild-type lanosterol 14 alpha-demethylase protein; assay: Prevention of CO-complex formation with reduced cytochrome P450, wild-type; assay type: binding, C. albicans; parameters: A 60 kDa protein, corresponding to the lanosterol 14 alpha-demethylase protein, was produced from this eukaryotic expression system; made in house; settings: wild-type proteins
Protocol: as §2

T2 sequence (P10613 whole entry, looked up, stated change not applied): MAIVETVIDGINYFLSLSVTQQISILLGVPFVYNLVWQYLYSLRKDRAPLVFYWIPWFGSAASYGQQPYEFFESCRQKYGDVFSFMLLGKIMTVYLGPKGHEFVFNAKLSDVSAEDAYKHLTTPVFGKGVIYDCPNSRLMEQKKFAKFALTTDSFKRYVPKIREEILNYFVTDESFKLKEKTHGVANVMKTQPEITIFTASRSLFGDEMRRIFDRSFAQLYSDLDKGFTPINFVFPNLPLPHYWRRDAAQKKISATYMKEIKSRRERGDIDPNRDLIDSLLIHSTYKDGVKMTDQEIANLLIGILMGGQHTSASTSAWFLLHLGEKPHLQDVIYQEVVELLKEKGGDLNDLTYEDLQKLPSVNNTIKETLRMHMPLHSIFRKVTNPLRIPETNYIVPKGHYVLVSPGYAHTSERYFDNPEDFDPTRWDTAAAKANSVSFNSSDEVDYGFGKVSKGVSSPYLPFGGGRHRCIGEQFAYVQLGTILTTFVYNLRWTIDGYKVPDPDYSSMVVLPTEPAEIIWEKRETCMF
T1 sequence (P10613 whole entry): as the sequence (P10613 whole entry, looked up, stated change not applied) above
Chain of wild-type HCV NS5B RNA-dependent RNA polymerase (Q9DHD6 2443-3033 limits assumed): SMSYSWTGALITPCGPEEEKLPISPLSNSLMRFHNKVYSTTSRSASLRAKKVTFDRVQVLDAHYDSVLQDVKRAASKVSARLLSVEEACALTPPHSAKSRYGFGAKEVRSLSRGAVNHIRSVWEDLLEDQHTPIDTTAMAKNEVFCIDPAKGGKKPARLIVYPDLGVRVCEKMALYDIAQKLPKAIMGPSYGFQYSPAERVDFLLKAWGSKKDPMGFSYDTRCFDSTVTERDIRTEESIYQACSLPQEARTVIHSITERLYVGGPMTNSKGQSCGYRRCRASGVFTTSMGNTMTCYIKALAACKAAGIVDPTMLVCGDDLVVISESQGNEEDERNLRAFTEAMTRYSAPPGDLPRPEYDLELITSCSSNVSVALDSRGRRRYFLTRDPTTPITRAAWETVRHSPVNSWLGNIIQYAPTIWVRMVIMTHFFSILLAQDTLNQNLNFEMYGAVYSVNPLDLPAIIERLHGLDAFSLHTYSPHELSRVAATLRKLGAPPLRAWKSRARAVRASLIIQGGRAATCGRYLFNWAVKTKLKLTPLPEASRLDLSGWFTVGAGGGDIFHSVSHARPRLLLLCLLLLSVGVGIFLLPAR
T3 sequence (P0A4L9 whole entry): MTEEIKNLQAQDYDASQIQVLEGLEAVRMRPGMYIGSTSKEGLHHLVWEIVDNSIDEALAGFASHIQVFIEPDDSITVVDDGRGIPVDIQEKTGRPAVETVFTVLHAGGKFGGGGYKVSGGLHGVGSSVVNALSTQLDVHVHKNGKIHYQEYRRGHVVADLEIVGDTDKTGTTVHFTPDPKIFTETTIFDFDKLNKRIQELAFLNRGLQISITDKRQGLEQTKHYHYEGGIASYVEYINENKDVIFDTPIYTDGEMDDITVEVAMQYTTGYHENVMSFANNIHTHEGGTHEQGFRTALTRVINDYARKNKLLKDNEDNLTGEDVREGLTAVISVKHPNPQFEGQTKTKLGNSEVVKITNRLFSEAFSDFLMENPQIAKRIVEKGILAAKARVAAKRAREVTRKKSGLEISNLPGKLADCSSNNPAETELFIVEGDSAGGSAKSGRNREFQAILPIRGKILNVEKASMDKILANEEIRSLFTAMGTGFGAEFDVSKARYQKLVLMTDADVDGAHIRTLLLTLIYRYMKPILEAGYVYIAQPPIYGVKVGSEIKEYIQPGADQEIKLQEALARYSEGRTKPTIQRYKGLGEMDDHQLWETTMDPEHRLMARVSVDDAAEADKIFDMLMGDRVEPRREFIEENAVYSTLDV
T3 sequence (P72524 whole entry): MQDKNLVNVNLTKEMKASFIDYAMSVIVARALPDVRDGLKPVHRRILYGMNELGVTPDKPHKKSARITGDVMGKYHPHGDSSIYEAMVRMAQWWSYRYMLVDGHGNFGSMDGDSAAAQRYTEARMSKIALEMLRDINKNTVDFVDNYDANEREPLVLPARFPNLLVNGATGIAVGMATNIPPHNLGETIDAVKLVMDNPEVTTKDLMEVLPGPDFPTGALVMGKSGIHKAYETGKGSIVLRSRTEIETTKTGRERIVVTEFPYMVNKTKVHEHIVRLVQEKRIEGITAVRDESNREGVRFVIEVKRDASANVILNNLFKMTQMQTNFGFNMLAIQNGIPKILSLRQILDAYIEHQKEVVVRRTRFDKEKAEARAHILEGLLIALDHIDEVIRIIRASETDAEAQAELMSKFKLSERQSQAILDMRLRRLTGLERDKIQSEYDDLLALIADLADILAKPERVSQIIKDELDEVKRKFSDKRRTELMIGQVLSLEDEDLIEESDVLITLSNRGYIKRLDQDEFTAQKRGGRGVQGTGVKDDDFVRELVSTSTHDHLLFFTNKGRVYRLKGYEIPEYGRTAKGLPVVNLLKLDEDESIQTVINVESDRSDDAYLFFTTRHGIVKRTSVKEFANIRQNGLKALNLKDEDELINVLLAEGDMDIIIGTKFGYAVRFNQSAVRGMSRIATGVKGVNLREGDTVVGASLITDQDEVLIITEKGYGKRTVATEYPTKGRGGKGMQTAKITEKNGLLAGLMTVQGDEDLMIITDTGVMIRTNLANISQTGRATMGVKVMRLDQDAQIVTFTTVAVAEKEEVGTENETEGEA
Chain of wild-type HBV polymerase (HBV-WT) (P03159 whole entry): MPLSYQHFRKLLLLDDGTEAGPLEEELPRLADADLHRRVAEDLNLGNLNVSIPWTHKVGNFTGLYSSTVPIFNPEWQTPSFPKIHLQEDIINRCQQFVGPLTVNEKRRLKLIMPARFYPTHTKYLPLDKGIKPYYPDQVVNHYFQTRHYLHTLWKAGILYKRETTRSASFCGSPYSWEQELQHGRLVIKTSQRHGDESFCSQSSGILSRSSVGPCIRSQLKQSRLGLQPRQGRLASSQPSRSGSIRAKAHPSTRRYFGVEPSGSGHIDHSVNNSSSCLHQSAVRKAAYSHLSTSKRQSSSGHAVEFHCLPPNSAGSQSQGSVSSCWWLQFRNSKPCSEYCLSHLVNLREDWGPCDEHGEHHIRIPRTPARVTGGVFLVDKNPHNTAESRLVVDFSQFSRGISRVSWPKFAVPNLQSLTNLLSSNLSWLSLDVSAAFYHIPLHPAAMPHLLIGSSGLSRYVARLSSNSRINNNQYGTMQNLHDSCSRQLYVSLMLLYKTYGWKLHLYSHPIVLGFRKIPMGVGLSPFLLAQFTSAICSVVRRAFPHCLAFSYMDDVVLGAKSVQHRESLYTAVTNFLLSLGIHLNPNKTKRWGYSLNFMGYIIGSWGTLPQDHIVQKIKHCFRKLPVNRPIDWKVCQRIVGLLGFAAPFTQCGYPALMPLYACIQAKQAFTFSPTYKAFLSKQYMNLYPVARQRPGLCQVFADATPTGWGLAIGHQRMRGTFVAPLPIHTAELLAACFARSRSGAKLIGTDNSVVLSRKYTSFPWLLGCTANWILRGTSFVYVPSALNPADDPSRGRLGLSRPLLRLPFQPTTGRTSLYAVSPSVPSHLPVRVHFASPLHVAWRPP

C[C@@H]1CN(c2c(F)c(N)c3c(=O)c(C(=O)O)cn(C4CC4)c3c2F)C[C@H](C)N1 [sparfloxacin]
fold increase in inhibitory concentration of mutant versus wild-type enzyme [1]: about 4 fold

CCC(C)n1ncn(-c2ccc(N3CCN(c4ccc(OCC5COC(Cn6cncn6)(c6ccc(Cl)cc6Cl)O5)cc4)CC3)cc2)c1=O (centres unmarked) [itraconazole]
IC50 [2]: 0.01 to 0.05 µM | IC50 [3]: 0.03 to 0.075 µM

Cc1c(F)c(N2CCNC(C)C2)cc2c1c(=O)c(C(=O)O)cn2C1CC1 (centres unmarked) [grepafloxacin]
MIC relative to maximal serum drug concentrations reported for standard dosage regimens [1]: above the maximal serum drug concentrations

CN[C@@H](C)[C@@H]1CCN(c2c(F)cc3c(=O)c(C(=O)O)cn(C4CC4)c3c2OC)C1 [premafloxacin]
fold increase in inhibitory concentration of mutant versus wild-type enzyme [1]: 32 fold

NC(=O)c1ncn([C@@H]2O[C@H](COP(=O)(O)OP(=O)(O)OP(=O)(O)O)[C@@H](O)[C@H]2O)n1 [ribavirin triphosphates]
effect on RdRp activity [4]: no inhibitory effect | effect on RdRp activity ([5]; wild-type NS5B protein): no inhibitory effect

CC(=O)N1CCN(c2ccc(OCC3COC(Cn4ccnc4)(c4ccc(Cl)cc4Cl)O3)cc2)CC1 (centres unmarked) [ketoconazole]
MIC(80) [6]: 0.5 µg/mL (≈ 0.941 µM)

Nc1ccn([C@@H]2CS[C@H](COP(=O)(O)OP(=O)(O)OP(=O)(O)O)O2)c(=O)n1 [lamivudine-TP]
IC50 [7]: ~0.05 µM

NC1CCN(c2c(F)cc3c(=O)c(C(=O)O)cn(C4CC4)c3c2Cl)C1 (centres unmarked) [clinafloxacin]
ratio of the calculated affinity parameter for DNA gyrase to that for topoisomerase IV, compared with ciprofloxacin and trovafloxacin [8]: lower | affinity compared with ciprofloxacin, trovafloxacin, gatifloxacin, gemifloxacin and moxifloxacin (mutant DNA Gyrase A): higher affinities | MIC relative to maximal serum drug concentrations reported for standard dosage regimens [1]: below the maximal serum concentrations | affinity compared with ciprofloxacin, trovafloxacin, gatifloxacin, gemifloxacin and moxifloxacin (wild-type DNA Gyrase A): higher affinities

N[C@@H]1[C@H]2CN(c3nc4c(cc3F)c(=O)c(C(=O)O)cn4-c3ccc(F)cc3F)C[C@@H]12 [trovafloxacin]
MIC relative to maximal serum drug concentrations reported for standard dosage regimens [1]: above the maximal serum drug concentrations

COc1c(N2CCNC(C)C2)c(F)cc2c(=O)c(C(=O)O)cn(C3CC3)c12 (centres unmarked) [gatifloxacin]
ratio of the calculated affinity parameter for DNA gyrase to that for topoisomerase IV, compared with ciprofloxacin and trovafloxacin [8]: lower | MIC relative to maximal serum drug concentrations reported for standard dosage regimens [1]: above the maximal serum drug concentrations

CO/N=C1\CN(c2nc3c(cc2F)c(=O)c(C(=O)O)cn3C2CC2)CC1CN (centres unmarked) [gemifloxacin]
MIC relative to maximal serum drug concentrations reported for standard dosage regimens [1]: below the maximal serum concentrations

CN1C(=O)[C@]23CC4=CC=C[C@H](O)[C@H]4N2C(=O)[C@@]1(CO)SS3 [gliotoxin]
effect on RdRp activity [4]: inhibited HCV NS5B RdRp of both wild-type and patient derived proteins in a dose-dependent manner | effect on RdRp activity [5]: inhibited HCV NS5B RdRp of both wild-type and patient derived proteins in a dose-dependent manner

Cc1cn([C@H]2C[C@H](N=[N+]=[N-])[C@@H](CO)O2)c(=O)[nH]c1=O [AZT, zidovudine]
reduction of virus replication (HIV): about 90% | difference in the IC50 value, patient sample versus wild-type [9]: five-fold

OC(Cn1cncn1)(Cn1cncn1)c1ccc(F)cc1F [fluconazole]
MIC(80), MIC at which 80% of cells were inhibited (S. cerevisiae AD1-8u(−)): 0.625 µg/mL | MIC(80) [6]: 30 µg/mL (≈ 98 µM) | range of IC50 values, wild-type to mutant [10]: more than 100 fold | IC50 [3]: ~4.88 µM | IC50 [11]: 0.04 µM
